Results reported in article PMC6801405, “Discovery of 3-Arylquinoxaline Derivatives as Potential Anti-Dengue Virus Agents” (International Journal of Molecular Sciences, 2019).

Legend:
[1] = system: DENV; assay: DENV protein synthesis by Western blotting in Huh-7 cells; format: cell-based, dengue virus; details: 0.5, 1, 2.5 and 5 μM, three days
Method: To further confirm the anti-DENV effect of compound 19a, we treated compound 19a at indicated concentrations in Huh-7 cells for three days.
Huh-7 cells were seeded in 24-well plates at a density of 5 × 10^4 cells per well overnight and treated with indicated reagent at proper concentrations for three days. Cells were washed with cold phosphate-buffered saline (PBS) and lysed by radioimmunoprecipitation assay (RIPA) lysis buffer (50 mM Tris-HCl, pH 7.5, 150 mM NaCl, 1% Nonidet P-40, 2 mM ethylenediaminetetraacetic acid (EDTA), 1 mM ethylene glycol bis(2-aminoethyl)tetraacetic acid (EGTA), 1 mM NaVO3, 10 mM NaF, 1 mM dithiothreitol (DTT), 1 mM phenylmethylsulfonyl fluoride (PMSF), 25 μg/mL aprotinin, and 25 μg/mL leupeptin) and stored at −20 °C. The protein concentration was determined by the Bradford method. Then, 10-μg protein samples were separated by 10% SDS-PAGE and transferred onto a polyvinylidene fluoride (PVDF) membrane. The membrane was blocked with 5% non-fat dried milk and incubated with specific antibodies against GAPDH (1:10000, Genetex, Irvine, CA, USA) and COX-2 (1:1000; Cayman Chemical, Ann Arbor, ML, USA). […] The blotting signal was developed using an enhanced chemiluminescence (ECL) detection kit (PerkinElmer, Waltham, MA, USA) and was counted by the software Quantity One (Bio-Rad, Hercules, CA, USA). […]

[2] = system: COX-2 expression; assay: COX-2 protein and mRNA expression in Huh-7 cells (Western blotting, RT-qPCR); format: cell-based, Human; details: 0.5 to 5 μM, vs DMSO
Method: In a previous study, Lin et al. reported that induction of COX-2 could suppress DENV replication. To determine whether compound 19a had impact on COX-2 protein and mRNA expression in Huh-7 cells, we treated Huh-7 cells with 0.5 to 5 μM of 19a. […] To characterize whether the 19a-mediated downregulation of COX-2 expression and its catalytic activity was involved in the suppression of DENV replication, we overexpressed exogenous COX-2 to evaluate the inhibitory activity of 19a on DENV replication. […] Consistently, the exogenous expression of COX-2 attenuated the inhibitory effect of 19a on the non-structural 2B (NS2B) protein levels, as analyzed by Western blotting.
Huh-7 cells were seeded in 24-well plates at a density of 5 × 10^4 cells per well overnight and treated with indicated reagent at proper concentrations for three days. […] The protein concentration was determined by the Bradford method. […] The blotting signal was developed using an enhanced chemiluminescence (ECL) detection kit (PerkinElmer, Waltham, MA, USA) and was counted by the software Quantity One (Bio-Rad, Hercules, CA, USA). […]
Figure 4 Inhibitory effect of 19a on DENV-induced cyclooxygenase-2 (COX-2) expression in Huh-7 cells. […] The results are expressed as the means ± standard deviations (SD) of triplicate experiments.

Structure (SMILES): COc1ccc(-c2nc3ccccc3nc2C(O)c2ccccc2)cc1 (stereo not shown) [Compound 19a, [3-(4-Methoxyphenyl)quinoxalin-2-yl](phenyl)methanol]
- DENV protein synthesis (Western blotting) [1]: dose-dependently reduced
- COX-2 mRNA level [2]: could inhibit
- COX-2 protein level [2]: could inhibit
- melting point: 160.4 to 161.9 °C
